Assay results from ChEMBL document CHEMBL4834428 (J Med Chem, 2021).

Legend:
[1] = target: T1, NAD-dependent protein deacetylase sirtuin-2 (Homo sapiens, UniProt Q8IXJ6); assay: Inhibition of His6-tagged/TEV fused SIRT2 (unknown origin) expressed in Escherichia coli BL21 (DE3) preincubated for 15 mins followed by NAD+ addition and measured after 30 mins by FLucK529Ac based luminescence assay
T1 sequence (Q8IXJ6 whole entry): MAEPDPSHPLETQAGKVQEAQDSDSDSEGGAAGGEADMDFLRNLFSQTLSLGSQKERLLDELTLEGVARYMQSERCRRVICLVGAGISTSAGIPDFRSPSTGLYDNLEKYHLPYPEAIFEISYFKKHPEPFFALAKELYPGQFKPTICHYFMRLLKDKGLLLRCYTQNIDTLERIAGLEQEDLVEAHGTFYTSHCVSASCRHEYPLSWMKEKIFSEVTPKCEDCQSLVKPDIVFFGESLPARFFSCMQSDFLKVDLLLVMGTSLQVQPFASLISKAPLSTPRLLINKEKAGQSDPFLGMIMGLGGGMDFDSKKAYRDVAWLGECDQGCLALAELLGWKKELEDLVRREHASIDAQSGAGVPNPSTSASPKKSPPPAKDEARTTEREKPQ

[2] = target: T2, NAD-dependent protein deacetylase sirtuin-3, mitochondrial (Homo sapiens, UniProt Q9NTG7); assay: Inhibition of His6-tagged/TEV fused SIRT3 (unknown origin) expressed in Escherichia coli BL21 (DE3) preincubated for 15 mins followed by NAD+ addition and measured after 30 mins by FLucK529Ac based luminescence assay
T2 sequence (Q9NTG7 whole entry): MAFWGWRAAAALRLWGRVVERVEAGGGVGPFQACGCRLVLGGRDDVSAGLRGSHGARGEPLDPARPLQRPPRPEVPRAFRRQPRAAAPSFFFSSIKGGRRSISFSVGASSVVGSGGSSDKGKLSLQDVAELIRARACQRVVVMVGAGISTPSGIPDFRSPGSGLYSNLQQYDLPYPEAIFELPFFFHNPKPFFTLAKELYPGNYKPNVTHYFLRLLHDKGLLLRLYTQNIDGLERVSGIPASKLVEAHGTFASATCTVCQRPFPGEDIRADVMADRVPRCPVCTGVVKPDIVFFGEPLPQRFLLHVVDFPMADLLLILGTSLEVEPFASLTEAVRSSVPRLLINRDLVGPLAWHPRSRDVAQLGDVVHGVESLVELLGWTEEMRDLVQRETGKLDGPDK

[3] = target: T3, NAD-dependent protein deacetylase sirtuin-1 (Homo sapiens, UniProt Q96EB6)
T3 sequence (Q96EB6 whole entry): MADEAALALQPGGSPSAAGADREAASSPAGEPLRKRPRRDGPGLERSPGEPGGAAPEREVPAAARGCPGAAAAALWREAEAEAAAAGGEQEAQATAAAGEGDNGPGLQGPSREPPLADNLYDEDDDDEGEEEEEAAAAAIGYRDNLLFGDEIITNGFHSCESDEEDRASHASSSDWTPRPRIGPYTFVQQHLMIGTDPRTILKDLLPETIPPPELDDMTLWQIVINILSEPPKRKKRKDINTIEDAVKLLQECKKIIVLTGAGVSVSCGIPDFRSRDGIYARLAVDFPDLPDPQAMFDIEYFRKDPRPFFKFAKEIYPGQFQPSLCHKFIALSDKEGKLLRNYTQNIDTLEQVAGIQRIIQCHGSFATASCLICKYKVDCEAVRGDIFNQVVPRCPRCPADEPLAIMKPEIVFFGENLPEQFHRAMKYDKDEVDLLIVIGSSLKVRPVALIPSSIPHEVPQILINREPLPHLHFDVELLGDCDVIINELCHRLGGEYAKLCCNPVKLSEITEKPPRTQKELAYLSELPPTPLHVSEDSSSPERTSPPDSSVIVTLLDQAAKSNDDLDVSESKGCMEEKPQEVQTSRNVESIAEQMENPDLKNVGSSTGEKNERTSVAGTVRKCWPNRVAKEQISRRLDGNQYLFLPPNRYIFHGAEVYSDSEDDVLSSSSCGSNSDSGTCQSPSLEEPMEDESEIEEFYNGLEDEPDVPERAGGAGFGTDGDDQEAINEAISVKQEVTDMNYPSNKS
Description: Inhibition of His6-tagged SIRT1 (unknown origin) expressed in Escherichia coli BL21 (DE3) preincubated for 15 mins followed by NAD+ addition and measured after 30 mins by FLucK529Ac based luminescence assay

| Structure (SMILES) | IC50 [1] [µM] | IC50 [2] [µM] | IC50 [3] [µM] |
| --- | --- | --- | --- |
| COC(=O)c1ccccc1CN1CC(C(N)=O)Oc2ccccc21 (centres undefined) | > 60 | > 60 | 0.49 |
| COC(=O)c1ccc(CN2CC(C(N)=O)Oc3ccccc32)cc1 (centres undefined) | > 60 | > 60 | 3.45 |
| NC(=O)C1CNc2ccccc2O1 (centres undefined) | > 60 | > 60 | > 60 |
| NC(=O)C1CN(Cc2ccccc2C(=O)O)c2ccccc2O1 (centres undefined) | > 60 | > 60 | 13.9 |
| CC(=O)Nc1cccc(CN2CC(C(N)=O)Oc3ccccc32)c1 (centres undefined) | > 60 | > 60 | 2.4 |
| NC(=O)C1CN(C(=O)c2ccccc2)c2ccccc2O1 (centres undefined) | > 60 | > 60 | > 60 |
| CC(C)CC(=O)N1CC(C(N)=O)Oc2ccccc21 (centres undefined) | > 60 | > 60 | > 60 |
| NC(=O)C1CN(S(=O)(=O)c2cccc3ccccc23)c2ccccc2O1 (centres undefined) | > 60 | > 60 | > 60 |
| Cc1ccc(S(=O)(=O)N2CC(C(N)=O)Oc3ccccc32)cc1 (centres undefined) | > 60 | > 60 | > 60 |
| COc1ccc(C(=O)N2CC(C(N)=O)Oc3ccccc32)cc1 (centres undefined) | > 60 | – | > 60 |
| CC(C)(C)OC(=O)CN1CC(C(N)=O)Oc2ccccc21 (centres undefined) | > 60 | > 60 | > 60 |
| O=C(O)C1CN(Cc2ccccc2)c2ccccc2O1 (centres undefined) | > 60 | > 60 | > 60 |
| COc1ccc(NC(=O)N2CC(C(N)=O)Oc3ccccc32)cc1 (centres undefined) | > 60 | > 60 | > 60 |
| NC(=O)C1CN(Cc2ccc(-c3ccccc3)cc2)c2ccccc2O1 (centres undefined) | > 60 | > 60 | > 60 |
| CC(=O)Nc1ccccc1CN1CC(C(N)=O)Oc2ccccc21 (centres undefined) | > 60 | > 60 | 31.6 |
| N#Cc1cccc(NC(=O)N2CC(C(N)=O)Oc3ccccc32)c1 (centres undefined) | > 60 | > 60 | > 60 |
| NC(=O)C1CN(Cc2ccccn2)c2ccccc2O1 (centres undefined) | > 60 | > 60 | 2.1 |

| Structure (SMILES) | IC50 [1] [µM] | IC50 [2] [µM] | IC50 [3] [µM] |
| --- | --- | --- | --- |
| CS(=O)(=O)N1CC(C(N)=O)Oc2ccccc21 (centres undefined) | > 60 | > 60 | > 60 |
| O=C(O)C1CNc2ccccc2O1 (centres undefined) | > 60 | > 60 | > 60 |
| CC(C)(C)OC(=O)Nc1nc(CN2CC(C(N)=O)Oc3ccccc32)cs1 (centres undefined) | > 60 | > 60 | 5.63 |
| CC(=O)Nc1ccc(CN2CC(C(N)=O)Oc3ccccc32)cc1 (centres undefined) | > 60 | > 60 | 10.4 |
| Cc1ccc(NC(=O)N2CC(C(N)=O)Oc3ccccc32)cc1 (centres undefined) | > 60 | > 60 | > 60 |
| C#CCN1CC(C(N)=O)Oc2ccccc21 (centres undefined) | > 60 | > 60 | > 60 |
| O=C(C1CN(Cc2ccccc2)c2ccccc2O1)N1CCCCC1 (centres undefined) | > 60 | > 60 | > 60 |
| CCOC(=O)C1CNc2ccccc2O1 (centres undefined) | > 60 | > 60 | > 60 |
| CNC(=O)C1CN(Cc2ccccc2)c2ccccc2O1 (centres undefined) | > 60 | > 60 | > 60 |
| CC(=O)Nc1nc(CN2CC(C(N)=O)Oc3ccccc32)cs1 (centres undefined) | > 60 | – | 0.62 |
| CCOC(=O)C1CN(Cc2ccccc2)c2ccccc2O1 (centres undefined) | > 60 | > 60 | > 60 |
| NC(=O)C1CN(Cc2ccccc2I)c2ccccc2O1 (centres undefined) | > 60 | > 60 | 0.47 |
| NC(=O)C1CN(Cc2ccccc2)c2ccccc2O1 (centres undefined) | > 60 | > 60 | 8.54 |
| NC(=O)C1CN(C(=O)c2ccc(CCl)cc2)c2ccccc2O1 (centres undefined) | > 60 | > 60 | 48.8 |
| CN1CC(C(N)=O)Oc2ccccc21 (centres undefined) | > 60 | > 60 | > 60 |
| CC(=O)N1CC(C(N)=O)Oc2ccccc21 (centres undefined) | > 60 | > 60 | > 60 |
| NC(=O)C1CN(Cc2csc(N)n2)c2ccccc2O1 (centres undefined) | > 60 | > 60 | 1.48 |

Other lines, results leading:

| IC50 [1] [µM] | IC50 [2] [µM] | IC50 [3] [µM] | Structure (SMILES) |
| --- | --- | --- | --- |
| > 60 | > 60 | 37.4 | Cc1cccc(C)c1CN1CC(C(N)=O)Oc2ccccc21 (centres undefined) |
| 12.3 | > 60 | 0.82 | NC(=O)C1CN(Cc2ccccc2O)c2ccccc2O1 (centres undefined) |
| 0.6 | > 60 | > 60 | NC(=O)C1CN(Cc2ccc3nonc3c2)c2ccccc2O1 (centres undefined) |
| 1.76 | > 60 | 1.27 | NC(=O)C1CN(Cc2cccc(Br)c2)c2ccccc2O1 (centres undefined) |
| 0.52 | > 60 | 6.04 | NC(=O)C1CN(Cc2cc(C(F)(F)F)cc(C(F)(F)F)c2)c2ccccc2O1 (centres undefined) |
| 34 | > 60 | 0.11 | N#Cc1ccccc1CN1CC(C(N)=O)Oc2ccccc21 (stereo in doubt; form 2) |
| 22.2 | > 60 | 2.49 | Cc1ccccc1CN1CC(C(N)=O)Oc2ccccc21 (centres undefined) |
| 22.8 | > 60 | 28.5 | NC(=O)C1CN(Cc2ccc(C(F)(F)F)cc2)c2ccccc2O1 (centres undefined) |
| 32.6 | > 60 | 14.1 | NC(=O)C1CN(Cc2cnnn2Cc2ccccc2)c2ccccc2O1 (centres undefined) |
| 36.1 | > 60 | 4.91 | NC(=O)C1CN(Cc2ccccc2N)c2ccccc2O1 (centres undefined) |
| 11.2 | > 60 | 0.43 | N#Cc1cccc(CN2CC(C(N)=O)Oc3ccccc32)c1 (centres undefined) |
| 58 | > 60 | 4.7 | NC(=O)C1CN(Cc2cccnc2)c2ccccc2O1 (centres undefined) |
| 25 | > 60 | 0.97 | NC(=O)C1CN(Cc2ccccc2C(F)(F)F)c2ccccc2O1 (centres undefined) |
| 34.7 | > 60 | 1.06 | NC(=O)C1CN(Cc2ccc([N+](=O)[O-])cc2)c2ccccc2O1 (centres undefined) |
| 47.3 | > 60 | 47.3 | N#Cc1ccccc1CN1CC(C(N)=O)Oc2ccccc21 (stereo in doubt; form 1) |
| 35.4 | > 60 | 1.77 | NC(=O)C1CN(Cc2ccccc2F)c2ccccc2O1 (centres undefined) |
| 41.9 | > 60 | 8.05 | NC(=O)C1CN(Cc2cn(Cc3ccccc3)nn2)c2ccccc2O1 (centres undefined) |
| 10.6 | > 60 | – | NC(=O)C1CN(Cc2ccccc2[N+](=O)[O-])c2ccccc2O1 (centres undefined) |
| 42 | > 60 | 20.1 | CC(C)(C)OC(=O)c1ccc(CN2CC(C(N)=O)Oc3ccccc32)cc1 (centres undefined) |
| 4.19 | > 60 | 0.23 | NC(=O)C1CN(Cc2cccc([N+](=O)[O-])c2)c2ccccc2O1 (centres undefined) |
| 26 | > 60 | 1.9 | NC(=O)C1CN(Cc2ccc3c(c2)OCO3)c2ccccc2O1 (centres undefined) |
| 15.4 | > 60 | 2.13 | COc1cccc(CN2CC(C(N)=O)Oc3ccccc32)c1 (centres undefined) |
| 33.6 | > 60 | 0.67 | NC(=O)C1CN(Cc2ccccc2Cl)c2ccccc2O1 (centres undefined) |
| 16.6 | > 60 | 0.56 | NC(=O)C1CN(Cc2ccccc2Br)c2ccccc2O1 (centres undefined) |
| 31.8 | > 60 | 1.45 | COc1ccc(CN2CC(C(N)=O)Oc3ccccc32)cc1 (centres undefined) |
